Tested on: participants with SSc-RP
Experiment: Average duration of weekly symptomatic RP attacks (minutes)
Type: in vivo, human
Settings: ITT Part A
Excerpt: The relevant metrics measured by this tool daily are: • Study medication • SSc-RP symptoms (Reporting an attack including duration of attack) • Severity of the attack considering all symptoms of the attack e.g. tingling, numbness, pain, color changes (VAS 0-10 cm scale) • Participant's location at the time of the attack (inside home/outside home) • Selecting symptoms experienced during the attack (tingling, numbness, pain, color changes, other) • Pain rating during the attack (11-point Likert scale) • The RCS based on how much difficulty participants had with Raynaud's today, how many attacks the participant had, and how long they lasted. Participants will also be asked to consider how much pain, numbness, or other symptoms the Raynaud's caused in fingers (including painful sores), and how much the Raynaud's alone affected the use of hands today (VAS 0-10 cm scale).
The absolute change in average duration of weekly RP attacks from baseline to the end of each dosing period was and will be a secondary outcome variable. The sponsor-developed participant-informed diary was and will be used to record data. Average duration of weekly RP attacks is defined as the total duration of RP attacks divided by total number of RP attacks within the last 7 days of each dosing period. Total duration of RP attacks during the last 7 days of screening period divided by the total number of RP attacks will be used as baseline for the analysis of all periods. The variable will be calculated similar to frequency data as before.

[1] = Excluding Outliers, Baseline RCS subgroup 2 (second half of Table B-4, stratum not given), last 7 days of dosing period
[2] = Excluding Outliers, Baseline RCS subgroup 2 (second half of Table B-4, stratum not given), last 7 days of screening period
[3] = Baseline RCS subgroup 2 (Table B-3, stratum not given), last 7 days of dosing period
[4] = Baseline RCS subgroup 2 (Table B-3, stratum not given), last 7 days of screening period

## CN1CC(=O)N2[C@H](c3ccc4c(c3)OCO4)c3[nH]c4ccccc4c3C[C@@H]2C1=O [Tadalafil]
[1]
  Average Duration of weekly symptomatic RP attacks, Max: 6.0, 6.0 minutes
  Average Duration of weekly symptomatic RP attacks, Mean: 6.00 min
  Average Duration of weekly symptomatic RP attacks, Median: 6.00 min
  Average Duration of weekly symptomatic RP attacks, Min: 6.0, 6.0 minutes
  Average Duration of weekly symptomatic RP attacks, Q1: 6.00, 6.00 minutes
  Average Duration of weekly symptomatic RP attacks, Q3: 6.00, 6.00 minutes
  Average duration of weekly symptomatic RP attacks, Change from Baseline, Max: −4.6, −4.6 minutes
  Average duration of weekly symptomatic RP attacks, Change from Baseline, Mean: -4.58 min
  Average duration of weekly symptomatic RP attacks, Change from Baseline, Min: −4.6, −4.6 minutes
  Average duration of weekly symptomatic RP attacks, Change from Baseline, Q3: −4.58, −4.58 minutes
  Average duration of weekly symptomatic RP attacks, Percent Change from Baseline, Max: −43.3, −43.3%
  Average duration of weekly symptomatic RP attacks, Percent Change from Baseline, Mean: −43.31%
  Average duration of weekly symptomatic RP attacks, Percent Change from Baseline, Min: −43.3, −43.3%
  Average duration of weekly symptomatic RP attacks, Percent Change from Baseline, Q3: −43.31, −43.31%
[2]
  Average duration of weekly symptomatic RP attacks, Baseline, Max: 10.6, 10.6 minutes
  Average duration of weekly symptomatic RP attacks, Baseline, Mean: 10.58 min
  Average duration of weekly symptomatic RP attacks, Baseline, Median: 10.58 min
  Average duration of weekly symptomatic RP attacks, Baseline, Min: 10.6, 10.6 minutes
  Average duration of weekly symptomatic RP attacks, Baseline, Q1: 10.58, 10.58 minutes
  Average duration of weekly symptomatic RP attacks, Baseline, Q3: 10.58, 10.58 minutes
[3]
  Average Duration of weekly symptomatic RP attacks: 6.0 min
  Average Duration of weekly symptomatic RP attacks, Max: 818.6 min
  Average Duration of weekly symptomatic RP attacks, Q1: 6.00 min
  Average Duration of weekly symptomatic RP attacks, Q3: 818.57 min
  Average duration of weekly symptomatic RP attacks, Change from Baseline: -4.6 min
  Average duration of weekly symptomatic RP attacks, Change from Baseline, Max: 286.1 min
  Average duration of weekly symptomatic RP attacks, Change from Baseline, Q1: -4.58 min
  Average duration of weekly symptomatic RP attacks, Change from Baseline, Q3: 286.07 min
  Average duration of weekly symptomatic RP attacks, Percent Change from Baseline, Max: 53.7%
  Average duration of weekly symptomatic RP attacks, Percent Change from Baseline, Min: −43.3%
  Average duration of weekly symptomatic RP attacks, Percent Change from Baseline, Q1: −43.31%
  Average duration of weekly symptomatic RP attacks, Percent Change from Baseline, Q3: 53.72%
[4]
  Average duration of weekly symptomatic RP attacks, Baseline: 10.6 min
  Average duration of weekly symptomatic RP attacks, Baseline, Max: 532.5 min
  Average duration of weekly symptomatic RP attacks, Baseline, Mean: 271.54 min
  Average duration of weekly symptomatic RP attacks, Baseline, Median: 271.54 min
  Average duration of weekly symptomatic RP attacks, Baseline, Q1: 10.58 min
  Average duration of weekly symptomatic RP attacks, Baseline, Q3: 532.50 min

— patent US20240398771A1, “TREATMENT OF SCLERODERMA AND RAYNAUD'S SYNDROME” (Aisa Pharma, Inc., priority 2023, published 2024)
